“And” between values parts separate entries of the source, which are not always exact repeats. Equal entries are not always repeated.
Columns and labels:
[1] = biological target: ALK tyrosine kinase receptor (Homo sapiens) (UniProt Q9UM73); assay: Enzymatic radiometric [Km ATP] KinaseProfiler LeadHunter assay, kinase: ALK, catalogue number: 14-555KP The assay has been performed by Eurofins Discovery.; details: ATP concentration 200.0 uM, Test compound concentration 10.0 uM
[2] = biological target: Protein kinase C theta type (Homo sapiens) (UniProt Q04759); assay: Enzymatic radiometric [Km ATP] KinaseProfiler LeadHunter assay, kinase: PKC-theta, catalogue number: 14-444KP The assay has been performed by Eurofins Discovery.; details: ATP concentration 15.0 uM, Test compound concentration 10.0 uM
[3] = biological target: Tyrosine-protein kinase Fyn (Homo sapiens) (UniProt P06241); assay: Enzymatic radiometric [Km ATP] KinaseProfiler LeadHunter assay, kinase: Fyn, catalogue number: 14-441KP The assay has been performed by Eurofins Discovery.; details: ATP concentration 70.0 uM, Test compound concentration 10.0 uM
[4] = biological target: Cyclin-dependent kinase 2/cyclin A (Homo sapiens) (UniProt P24941+P20248+P78396); assay: Enzymatic radiometric [Km ATP] KinaseProfiler LeadHunter assay, kinase: CDK2/cyclinA, catalogue number: 14-448KP The assay has been performed by Eurofins Discovery.; type: protein-complex assay; details: ATP concentration 45.0 uM, Test compound concentration 10.0 uM
[5] = biological target: Serine/threonine-protein kinase PLK3 (Homo sapiens) (UniProt Q9H4B4); assay: Enzymatic radiometric [Km ATP] KinaseProfiler LeadHunter assay, kinase: Plk3, catalogue number: 14-572KP The assay has been performed by Eurofins Discovery.; details: ATP concentration 70.0 uM, Test compound concentration 10.0 uM
[6] = biological target: T1, Eukaryotic elongation factor 2 kinase (Homo sapiens) (UniProt O00418); assay: Enzymatic radiometric [Km ATP] KinaseProfiler LeadHunter assay, kinase: eEF-2K, catalogue number: 14-654KP The assay has been performed by Eurofins Discovery.; details: ATP concentration 15.0 uM, Test compound concentration 10.0 uM
T1 sequence (whole entry): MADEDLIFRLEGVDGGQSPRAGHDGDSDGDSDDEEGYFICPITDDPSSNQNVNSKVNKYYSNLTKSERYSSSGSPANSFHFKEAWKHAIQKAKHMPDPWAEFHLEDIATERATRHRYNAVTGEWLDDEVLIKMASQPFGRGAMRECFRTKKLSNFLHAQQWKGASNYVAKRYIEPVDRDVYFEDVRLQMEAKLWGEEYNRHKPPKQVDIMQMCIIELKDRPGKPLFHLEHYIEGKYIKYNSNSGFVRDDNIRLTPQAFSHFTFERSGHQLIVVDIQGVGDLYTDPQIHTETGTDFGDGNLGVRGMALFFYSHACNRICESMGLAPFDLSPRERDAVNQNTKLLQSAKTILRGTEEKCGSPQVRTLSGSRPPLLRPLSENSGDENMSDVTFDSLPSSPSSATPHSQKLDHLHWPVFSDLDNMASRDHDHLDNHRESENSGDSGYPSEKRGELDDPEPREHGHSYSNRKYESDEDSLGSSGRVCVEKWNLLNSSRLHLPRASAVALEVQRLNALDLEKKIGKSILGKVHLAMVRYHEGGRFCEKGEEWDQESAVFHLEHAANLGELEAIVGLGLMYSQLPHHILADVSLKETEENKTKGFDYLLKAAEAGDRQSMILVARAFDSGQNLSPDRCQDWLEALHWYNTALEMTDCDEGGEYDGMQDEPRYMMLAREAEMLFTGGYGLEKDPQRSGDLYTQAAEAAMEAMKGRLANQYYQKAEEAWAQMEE

[7] = biological target: T2, Interleukin-1 receptor-associated kinase 4 (Homo sapiens) (UniProt Q9NWZ3); assay: Enzymatic radiometric [Km ATP] KinaseProfiler LeadHunter assay, kinase: IRAK4, catalogue number: 14-599KP The assay has been performed by Eurofins Discovery.; details: ATP concentration 200.0 uM, Test compound concentration 10.0 uM
T2 sequence (whole entry): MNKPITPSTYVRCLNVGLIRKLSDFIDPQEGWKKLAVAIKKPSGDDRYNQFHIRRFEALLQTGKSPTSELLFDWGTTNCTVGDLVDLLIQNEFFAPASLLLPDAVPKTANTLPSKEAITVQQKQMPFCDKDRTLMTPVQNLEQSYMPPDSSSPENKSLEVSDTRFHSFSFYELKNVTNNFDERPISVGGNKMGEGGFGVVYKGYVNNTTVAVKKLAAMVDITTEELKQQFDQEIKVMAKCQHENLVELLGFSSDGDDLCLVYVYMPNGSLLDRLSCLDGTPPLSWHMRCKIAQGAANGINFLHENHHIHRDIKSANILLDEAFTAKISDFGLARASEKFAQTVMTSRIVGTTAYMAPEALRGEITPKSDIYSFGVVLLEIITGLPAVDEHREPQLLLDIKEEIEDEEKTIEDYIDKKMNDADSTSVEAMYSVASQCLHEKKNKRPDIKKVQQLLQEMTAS

[8] = biological target: Ephrin type-A receptor 5 (Homo sapiens) (UniProt P54756); assay: Enzymatic radiometric [Km ATP] KinaseProfiler LeadHunter assay, kinase: EphA5, catalogue number: 14-639KP The assay has been performed by Eurofins Discovery.; details: ATP concentration 10.0 uM, Test compound concentration 10.0 uM
[9] = biological target: Serine/threonine-protein kinase mTOR (Homo sapiens) (UniProt P42345); assay: Enzymatic radiometric [Km ATP] KinaseProfiler LeadHunter assay, kinase: mTOR, catalogue number: 14-769KP The assay has been performed by Eurofins Discovery.; details: ATP concentration 70.0 uM, Test compound concentration 10.0 uM
[10] = biological target: Ribosomal protein S6 kinase beta-1 (Homo sapiens) (UniProt P23443); assay: Enzymatic radiometric [Km ATP] KinaseProfiler LeadHunter assay, kinase: p70S6K, catalogue number: 14-486KP The assay has been performed by Eurofins Discovery.; details: ATP concentration 15.0 uM, Test compound concentration 10.0 uM
[11] = biological target: Tyrosine-protein kinase ABL1 (Homo sapiens) (UniProt P00519); assay: Enzymatic radiometric [Km ATP] KinaseProfiler LeadHunter assay, kinase: Abl, catalogue number: 14-529KP The assay has been performed by Eurofins Discovery.; details: ATP concentration 45.0 uM, Test compound concentration 10.0 uM
[12] = biological target: Insulin-like growth factor 1 receptor (Homo sapiens) (UniProt P08069); assay: Enzymatic radiometric [Km ATP] KinaseProfiler LeadHunter assay, kinase: IGF-1R, catalogue number: 14-465KP The assay has been performed by Eurofins Discovery.; details: ATP concentration 200.0 uM, Test compound concentration 10.0 uM
[13] = biological target: Vascular endothelial growth factor receptor 2 (Homo sapiens) (UniProt P35968); assay: Enzymatic radiometric [Km ATP] KinaseProfiler LeadHunter assay, kinase: KDR, catalogue number: 14-630KP The assay has been performed by Eurofins Discovery.; details: ATP concentration 90.0 uM, Test compound concentration 10.0 uM
[14] = biological target: Mitogen-activated protein kinase 14 (Homo sapiens) (UniProt Q16539); assay: Enzymatic radiometric [Km ATP] KinaseProfiler LeadHunter assay, kinase: SAPK2a, catalogue number: 14-251KP The assay has been performed by Eurofins Discovery.; details: ATP concentration 90.0 uM, Test compound concentration 10.0 uM
[15] = biological target: Ribosomal protein S6 kinase alpha-4 (Homo sapiens) (UniProt O75676); assay: Enzymatic radiometric [Km ATP] KinaseProfiler LeadHunter assay, kinase: MSK2, catalogue number: 14-616KP The assay has been performed by Eurofins Discovery.; details: ATP concentration 45.0 uM, Test compound concentration 10.0 uM

ALK tyrosine kinase receptor (Homo sapiens), sequence (Q9UM73 19-1620 limits assumed): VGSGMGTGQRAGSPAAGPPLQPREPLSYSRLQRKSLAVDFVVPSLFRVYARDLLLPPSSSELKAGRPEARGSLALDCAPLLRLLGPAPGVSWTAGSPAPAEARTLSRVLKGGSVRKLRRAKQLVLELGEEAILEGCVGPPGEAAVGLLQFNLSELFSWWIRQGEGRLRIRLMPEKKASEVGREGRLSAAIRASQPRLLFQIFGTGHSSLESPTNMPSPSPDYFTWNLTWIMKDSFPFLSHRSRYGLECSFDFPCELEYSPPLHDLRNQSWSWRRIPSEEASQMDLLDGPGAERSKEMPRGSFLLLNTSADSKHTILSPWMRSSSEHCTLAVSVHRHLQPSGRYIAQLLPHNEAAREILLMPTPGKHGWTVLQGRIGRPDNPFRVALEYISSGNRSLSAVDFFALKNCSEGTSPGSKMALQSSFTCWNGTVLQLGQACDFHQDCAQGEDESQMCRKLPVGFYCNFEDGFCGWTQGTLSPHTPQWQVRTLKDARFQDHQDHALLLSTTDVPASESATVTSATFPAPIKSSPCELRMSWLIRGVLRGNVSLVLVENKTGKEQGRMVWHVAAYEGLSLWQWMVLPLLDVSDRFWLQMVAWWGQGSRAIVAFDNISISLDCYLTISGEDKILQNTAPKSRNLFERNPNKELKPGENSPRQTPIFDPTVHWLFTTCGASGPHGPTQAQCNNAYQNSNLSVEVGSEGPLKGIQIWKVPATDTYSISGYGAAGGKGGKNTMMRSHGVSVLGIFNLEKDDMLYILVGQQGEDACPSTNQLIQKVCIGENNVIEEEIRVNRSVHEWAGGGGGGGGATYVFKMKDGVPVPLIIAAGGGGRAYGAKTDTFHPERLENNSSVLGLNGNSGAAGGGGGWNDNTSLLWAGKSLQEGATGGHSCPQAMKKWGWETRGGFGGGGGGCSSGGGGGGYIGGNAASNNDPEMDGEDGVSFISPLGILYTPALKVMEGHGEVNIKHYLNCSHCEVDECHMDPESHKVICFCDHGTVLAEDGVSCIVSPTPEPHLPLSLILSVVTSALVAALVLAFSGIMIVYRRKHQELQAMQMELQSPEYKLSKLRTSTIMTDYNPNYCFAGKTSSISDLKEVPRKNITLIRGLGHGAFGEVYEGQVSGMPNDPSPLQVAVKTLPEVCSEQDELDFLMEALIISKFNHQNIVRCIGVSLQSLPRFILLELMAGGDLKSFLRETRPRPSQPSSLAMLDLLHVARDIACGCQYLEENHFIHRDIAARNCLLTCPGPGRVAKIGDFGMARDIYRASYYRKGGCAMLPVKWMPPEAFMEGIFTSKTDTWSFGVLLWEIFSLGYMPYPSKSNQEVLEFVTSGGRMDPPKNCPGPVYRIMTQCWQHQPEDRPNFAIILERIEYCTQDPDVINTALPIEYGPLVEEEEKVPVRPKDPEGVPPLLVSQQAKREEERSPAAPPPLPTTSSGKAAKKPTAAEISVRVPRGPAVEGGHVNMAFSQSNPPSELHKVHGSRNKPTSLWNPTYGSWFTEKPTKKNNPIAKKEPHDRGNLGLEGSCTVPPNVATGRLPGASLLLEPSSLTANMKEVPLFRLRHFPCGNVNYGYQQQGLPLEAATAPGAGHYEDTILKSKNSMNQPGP
Vascular endothelial growth factor receptor 2 (Homo sapiens), sequence (P35968 whole entry): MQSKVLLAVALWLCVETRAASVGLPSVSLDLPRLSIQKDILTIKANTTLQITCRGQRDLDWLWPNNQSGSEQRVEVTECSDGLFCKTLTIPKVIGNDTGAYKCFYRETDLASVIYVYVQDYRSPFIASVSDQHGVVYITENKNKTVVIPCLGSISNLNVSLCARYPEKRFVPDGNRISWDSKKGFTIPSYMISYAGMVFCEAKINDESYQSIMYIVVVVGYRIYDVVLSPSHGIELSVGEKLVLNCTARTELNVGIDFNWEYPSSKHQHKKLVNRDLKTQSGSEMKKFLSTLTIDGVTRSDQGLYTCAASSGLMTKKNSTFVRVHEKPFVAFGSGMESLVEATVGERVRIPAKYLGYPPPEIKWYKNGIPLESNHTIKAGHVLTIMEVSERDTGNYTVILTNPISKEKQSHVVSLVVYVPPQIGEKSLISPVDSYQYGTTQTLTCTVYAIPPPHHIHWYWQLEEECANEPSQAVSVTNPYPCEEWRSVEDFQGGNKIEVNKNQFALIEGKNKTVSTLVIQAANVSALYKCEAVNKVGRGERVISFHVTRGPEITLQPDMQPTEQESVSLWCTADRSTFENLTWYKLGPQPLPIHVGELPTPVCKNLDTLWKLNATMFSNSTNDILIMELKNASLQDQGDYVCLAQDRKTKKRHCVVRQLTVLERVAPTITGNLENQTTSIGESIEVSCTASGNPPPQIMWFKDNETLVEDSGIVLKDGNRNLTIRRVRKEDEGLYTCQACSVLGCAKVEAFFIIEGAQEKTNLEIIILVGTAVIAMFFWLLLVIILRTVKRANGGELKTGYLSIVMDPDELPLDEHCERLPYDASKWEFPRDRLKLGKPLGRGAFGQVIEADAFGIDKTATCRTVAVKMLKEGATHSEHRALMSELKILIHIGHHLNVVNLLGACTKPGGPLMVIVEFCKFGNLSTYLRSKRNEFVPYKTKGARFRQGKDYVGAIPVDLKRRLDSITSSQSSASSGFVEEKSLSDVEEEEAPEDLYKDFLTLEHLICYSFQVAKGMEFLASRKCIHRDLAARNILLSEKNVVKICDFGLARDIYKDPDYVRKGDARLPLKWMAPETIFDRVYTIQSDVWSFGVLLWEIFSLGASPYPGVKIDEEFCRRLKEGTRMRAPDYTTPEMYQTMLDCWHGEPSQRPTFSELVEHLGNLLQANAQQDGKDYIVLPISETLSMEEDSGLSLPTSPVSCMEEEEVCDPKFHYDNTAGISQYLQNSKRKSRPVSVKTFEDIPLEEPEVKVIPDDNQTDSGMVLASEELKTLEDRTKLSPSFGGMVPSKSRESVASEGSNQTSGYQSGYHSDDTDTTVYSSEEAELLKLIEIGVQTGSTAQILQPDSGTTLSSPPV
Mitogen-activated protein kinase 14 (Homo sapiens), sequence (Q16539 whole entry): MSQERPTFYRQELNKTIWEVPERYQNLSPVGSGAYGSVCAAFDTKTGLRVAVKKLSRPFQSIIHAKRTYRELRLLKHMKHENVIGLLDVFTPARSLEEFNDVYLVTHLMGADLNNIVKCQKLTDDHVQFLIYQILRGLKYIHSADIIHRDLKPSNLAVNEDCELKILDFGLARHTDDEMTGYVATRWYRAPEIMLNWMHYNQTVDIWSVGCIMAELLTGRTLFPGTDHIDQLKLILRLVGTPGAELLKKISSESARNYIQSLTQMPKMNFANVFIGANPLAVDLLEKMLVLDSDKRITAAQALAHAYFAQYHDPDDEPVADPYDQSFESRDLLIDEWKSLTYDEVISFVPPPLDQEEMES
Serine/threonine-protein kinase PLK3 (Homo sapiens), sequence (Q9H4B4 whole entry, looked up): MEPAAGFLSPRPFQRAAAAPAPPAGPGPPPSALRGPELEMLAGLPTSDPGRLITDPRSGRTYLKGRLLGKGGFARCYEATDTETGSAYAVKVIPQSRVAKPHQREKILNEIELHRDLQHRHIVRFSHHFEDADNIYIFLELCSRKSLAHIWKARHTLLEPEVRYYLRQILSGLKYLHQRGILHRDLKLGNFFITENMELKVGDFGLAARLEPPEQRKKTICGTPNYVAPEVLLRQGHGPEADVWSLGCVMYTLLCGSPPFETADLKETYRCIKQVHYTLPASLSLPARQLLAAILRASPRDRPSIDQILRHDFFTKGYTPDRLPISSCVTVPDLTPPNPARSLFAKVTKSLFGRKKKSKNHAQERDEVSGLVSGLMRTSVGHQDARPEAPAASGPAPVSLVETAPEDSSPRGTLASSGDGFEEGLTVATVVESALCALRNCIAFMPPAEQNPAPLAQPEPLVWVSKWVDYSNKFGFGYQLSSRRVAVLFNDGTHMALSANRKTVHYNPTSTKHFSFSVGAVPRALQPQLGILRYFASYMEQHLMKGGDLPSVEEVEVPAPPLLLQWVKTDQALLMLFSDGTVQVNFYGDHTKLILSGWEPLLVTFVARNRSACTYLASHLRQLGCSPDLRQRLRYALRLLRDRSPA
Tyrosine-protein kinase Fyn (Homo sapiens), sequence (P06241 2-537 limits assumed): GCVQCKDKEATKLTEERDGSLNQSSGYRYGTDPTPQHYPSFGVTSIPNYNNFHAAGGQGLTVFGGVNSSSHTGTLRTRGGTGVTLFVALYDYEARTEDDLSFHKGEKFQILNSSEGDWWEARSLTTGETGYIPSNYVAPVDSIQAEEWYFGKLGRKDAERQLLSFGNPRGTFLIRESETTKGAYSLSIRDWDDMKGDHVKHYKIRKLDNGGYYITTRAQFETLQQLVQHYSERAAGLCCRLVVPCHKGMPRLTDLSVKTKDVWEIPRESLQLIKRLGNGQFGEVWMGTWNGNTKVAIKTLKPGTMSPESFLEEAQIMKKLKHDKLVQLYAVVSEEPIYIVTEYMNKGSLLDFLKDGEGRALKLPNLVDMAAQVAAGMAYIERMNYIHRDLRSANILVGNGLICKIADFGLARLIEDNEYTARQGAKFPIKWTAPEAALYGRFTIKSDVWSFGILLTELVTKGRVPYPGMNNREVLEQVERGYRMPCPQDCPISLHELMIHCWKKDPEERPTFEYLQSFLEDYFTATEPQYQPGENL
Ribosomal protein S6 kinase beta-1 (Homo sapiens), sequence (P23443 whole entry, looked up): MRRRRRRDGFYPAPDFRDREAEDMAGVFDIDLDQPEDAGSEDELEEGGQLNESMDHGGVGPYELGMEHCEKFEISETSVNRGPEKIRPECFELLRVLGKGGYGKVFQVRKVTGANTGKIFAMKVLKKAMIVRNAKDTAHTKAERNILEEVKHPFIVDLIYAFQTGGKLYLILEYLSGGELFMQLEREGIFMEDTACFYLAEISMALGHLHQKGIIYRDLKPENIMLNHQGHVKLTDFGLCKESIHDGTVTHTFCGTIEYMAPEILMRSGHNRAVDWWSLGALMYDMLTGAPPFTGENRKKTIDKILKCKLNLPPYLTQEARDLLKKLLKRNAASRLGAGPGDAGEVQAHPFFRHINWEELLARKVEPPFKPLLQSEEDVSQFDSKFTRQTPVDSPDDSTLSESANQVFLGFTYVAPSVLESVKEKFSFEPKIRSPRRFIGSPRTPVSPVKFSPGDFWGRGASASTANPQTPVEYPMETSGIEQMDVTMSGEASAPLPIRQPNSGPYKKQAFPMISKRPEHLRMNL

| Compound | Activity [1] | Activity [2] | Activity [3] | Activity [4] | Activity [5] | Activity [6] | Activity [7] | Activity [8] | Activity [9] | Activity [10] | Activity [11] | Activity [12] | Activity [13] | Activity [14] | Activity [15] |
| --- | --- | --- | --- | --- | --- | --- | --- | --- | --- | --- | --- | --- | --- | --- | --- |
| CC(C)[C@@H](Nc1ncnc2[nH]ccc12)c1ccc2c(c1)S(=O)(=O)CCC2 | 93% | 101% | 127% | 96% | 103% | 92% | 88% | 110% | 102% | 98% | 93% | 88% | 82% | 108% | 99% |
| C[C@H](C(=O)O)[C@@H](NC(=O)c1ncnc2[nH]ccc12)c1ccc(Br)cc1 | 99% | 100% | 98% | 102% | 98% | 85% | 106% | 99% | 100% | 97% | 97% | 95% | 77% | 103% | 90% |
| CC(C)[C@H](Nc1ncnc2[nH]c(-c3cnn(C)c3C#N)cc12)c1ccc2c(n1)OCCO2 | 116% | 96% | 80% | 104% | 102% | 108% | 106% | 102% | 104% | 125% | 57% | 85% | 76% | 99% | 114% |
| CC(C)[C@@H](Nc1ncnc2[nH]c(-c3cnn(C)c3C#N)cc12)c1ccc2c(n1)OCCO2 | 103% and 106% | 93% and 111% | 56% and 55% | 95% and 104% | 90% and 89% | 111% and 106% | 100% and 99% | 91% and 90% | 83% and 102% | 82% and 106% | 52% and 57% | 108% and 94% | 80% and 86% | 103% and 101% | 103% and 122% |
| COc1ccc([C@H](Cc2nnn[nH]2)NC(=O)c2ncnc3[nH]ccc23)cc1 | 106% | 91% | 102% | 113% | 102% | 96% | 109% | 102% | 97% | 113% | 102% | 103% | 97% | 103% | 103% |
| Cc1nn(C)cc1-c1cc2c(N[C@H](c3ccc4c(c3)S(=O)(=O)CCC4)C(C)C)ncnc2[nH]1 | 99% | 106% | 32% | 107% | 104% | 98% | 107% | 74% | 96% | 108% | 76% | 97% | 88% | 98% | 105% |
| CNCc1cc(-c2cc3c(N[C@@H](c4ccc5c(c4)S(=O)(=O)CCC5)C(C)C)ncnc3[nH]2)co1 | 99% | 106% | 64% | 98% | 124% | 82% | 100% | 78% | 105% | 110% | 51% | 99% | 88% | 97% | 91% |
| Cn1ncc(-c2cc3c(N[C@@H](c4ccc5c(n4)OCCO5)C(C)(C)C)ncnc3[nH]2)c1C#N | 117% | 96% | 82% | 114% | 77% | 124% | 132% | 102% | 105% | 108% | 81% | 77% | 83% | 106% | 122% |
| COc1ccc([C@@H](Cc2nnn[nH]2)NC(=O)c2ncnc3[nH]ccc23)cc1 | 95% | 90% | 105% | 97% | 102% | 96% | 91% | 106% | 95% | 81% | 98% | 106% | 79% | 100% | 92% |
| CC(C)[C@@H](Nc1ncnc2[nH]c(C(=O)N[C@@H]3CCN(C)C3)cc12)c1ccc2c(c1)S(=O)(=O)CCC2 | 106% | 102% | 107% | 117% | 98% | 89% | 105% | 100% | 103% | 104% | 100% | 104% | 96% | 97% | 93% |
| CC(C)[C@H](Nc1ncnc2[nH]ccc12)c1ccc2c(c1)S(=O)(=O)CCC2 | 100% | 88% | 96% | 102% | 112% | 93% | 112% | 102% | 99% | 103% | 105% | 100% | 86% | 107% | 92% |
| CNC(=O)Cn1cc(-c2cc3c(N[C@@H](c4ccc5c(c4)S(=O)(=O)CCC5)C(C)C)ncnc3[nH]2)cn1 | 95% | 91% | 65% | 95% | 98% | 94% | 101% | 80% | 104% | 100% | 72% | 105% | 91% | 103% | 92% |
